Results on nine compounds are retold here after BindingDB's records for doi:10.1021/jm960441m (Upjohn, 1997).

As a reminder, the Ki is the dissociation constant of the complex between target and ligand, obtained from inhibition or displacement.

Test [1] addresses T1, Dimer of Gag-Pol polyprotein [489-587] (Human immunodeficiency virus 1, UniProt P04585).
T1 construct: 489-587
The test can be described thus: Protease Inhibition Assay. Particulars: pH 5; 22 °C. The text has this: (§1) HIV-1 protease was purified and refolded from E. coli inclusion bodies. […] In the presence of HIV-l protease, the substrate is rapidly cleaved into two parts. The biotinylated amino terminal fragment binds to the avidin beads while the FITC-containing carboxy1 terminal fragment is removed through the membrane. […] The bound fluorescence is obtained by processing on an IDEXX Screen Machine. Determination of Ki values with this assay requires analysis under conditions in which substrate concentration resides substantially below Km and the inhibitor concentrations greatly exceeds the Ki value and the enzyme concentration.

In test [2] the target is T2, Dimer of Gag-Pol polyprotein [489-587] (Human immunodeficiency virus 1, UniProt P12497).
T2 construct: 489-587
Description: Protease Inhibition Assay.
Text: as §1

On to `N#Cc1cccc(S(=O)(=O)Nc2cccc(C(c3c(O)c4c(oc3=O)CCCCCC4)C3CC3)c2)c1` (centres undefined) [3-cyano-N-{3-[cyclopropyl({4-hydroxy-2-oxo-2H,5H,6H,7H,8H,9H,10H-cycloocta[b]pyran-3-yl})methyl]phenyl}benzene-1-sulfonamide], for which the Ki in test [1] came to 0.6 nM. Turning to `O=c1oc2c(c(O)c1C(c1cccc(NS(=O)(=O)c3ccc(I)cc3)c1)C1CC1)CCCCCC2` (centres undefined) [N-{3-[cyclopropyl({4-hydroxy-2-oxo-2H,5H,6H,7H,8H,9H,10H-cycloocta[b]pyran-3-yl})methyl]phenyl}-4-iodobenzene-1-sulfonamide], the Ki in test [2] is 3.1 nM. On the same count and under the same terms, then `O=c1oc2c(c(O)c1C(c1cccc(NS(=O)(=O)c3ccc([N+](=O)[O-])cc3)c1)C1CC1)CCCCCC2` (centres undefined) [N-{3-[cyclopropyl({4-hydroxy-2-oxo-2H,5H,6H,7H,8H,9H,10H-cycloocta[b]pyran-3-yl})methyl]phenyl}-4-nitrobenzene-1-sulfonamide], with 2.7 nM; and `O=c1oc2c(c(O)c1C(c1cccc(NS(=O)(=O)c3cccc4ccccc34)c1)C1CC1)CCCCCC2` (centres undefined) [N-{3-[cyclopropyl({4-hydroxy-2-oxo-2H,5H,6H,7H,8H,9H,10H-cycloocta[b]pyran-3-yl})methyl]phenyl}naphthalene-1-sulfonamide], with 5.5 nM. Still for that read-out and setting: as for `O=c1oc2c(c(O)c1C(c1cccc(NS(=O)(=O)c3ccc4ccccc4c3)c1)C1CC1)CCCCCC2` (centres undefined) [N-{3-[cyclopropyl({4-hydroxy-2-oxo-2H,5H,6H,7H,8H,9H,10H-cycloocta[b]pyran-3-yl})methyl]phenyl}naphthalene-2-sulfonamide], the figure is 4.1 nM; as for `O=c1oc2c(c(O)c1C(c1cccc(NS(=O)(=O)c3cnccn3)c1)C1CC1)CCCCCC2` (centres undefined) [N-{3-[cyclopropyl({4-hydroxy-2-oxo-2H,5H,6H,7H,8H,9H,10H-cycloocta[b]pyran-3-yl})methyl]phenyl}pyrazine-2-sulfonamide], 0.2 nM; as for `O=c1oc2c(c(O)c1C(c1cccc(NS(=O)(=O)c3ncccn3)c1)C1CC1)CCCCCC2` (centres undefined) [N-{3-[cyclopropyl({4-hydroxy-2-oxo-2H,5H,6H,7H,8H,9H,10H-cycloocta[b]pyran-3-yl})methyl]phenyl}pyrimidine-2-sulfonamide], 0.8 nM. In turn, `O=c1oc2c(c(O)c1C(c1cccc(NS(=O)(=O)c3ccc4ccccc4n3)c1)C1CC1)CCCCCC2` (centres undefined) [N-{3-[cyclopropyl({4-hydroxy-2-oxo-2H,5H,6H,7H,8H,9H,10H-cycloocta[b]pyran-3-yl})methyl]phenyl}quinoline-2-sulfonamide] registered a Ki in test [2] of 0.4 nM. Consider `O=c1oc2c(c(O)c1C(c1cccc(NS(=O)(=O)c3cccs3)c1)C1CC1)CCCCCC2` (centres undefined) [N-{3-[cyclopropyl({4-hydroxy-2-oxo-2H,5H,6H,7H,8H,9H,10H-cycloocta[b]pyran-3-yl})methyl]phenyl}thiophene-2-sulfonamide], for which, in test [2], the Ki was 6.3 nM.
